Measured values published in patent US20260048151A1, “HEMICYANINE PUSH-PULL DYES BASED ON CHROMENE ELECTRON DONORS” (UNIVERSITY OF CONNECTICUT, priority 2022, published 2026).

How the values were obtained:
[1] = Voltage sensitivity on voltage-clamped hemispherical lipid bilayer; conditions: long pass emission filter
Source text: It is known that optimal voltage sensitivity can be obtained by measuring the compounds on a voltage-clamped hemispherical bilayer apparatus. The apparatus can include a patch-clamp amplifier, such as a HEKA EPC-8 patch-clamp amplifier. Measurements can be obtained by stepping the membrane potential between two different potentials for a set time lapse. such as, for example, −110 and −60 mV every 10 ms.
Testing VSDs in a voltage-clamped hemispherical lipid bilayer allows one to determine the sensitivity of the VSDs as a function of excitation wavelength. This system has a Teflon tube filled with KCl and is immersed in a KCl solution in a cuvette. A lipid bubble is blown at the tip of the tube and spontaneously forms a bilayer membrane. The VSD to be tested is introduced on one side of the bilayer, usually in the cuvette. Electrodes in the tube and in the cuvette allow the imposition of a voltage across the membrane and a tungsten lamp coupled to a monochromator allows excitation wavelength dependence of the fluorescence response to voltage steps to be determined. This screening approach has allows for the comparison of the efficacy of newly developed VSDs in a well-controlled, consistent manner and to also determine excitation and emission wavelengths with optimal.
Voltage sensitivities of 2a as a function of voltage is shown in FIG. 3A for excitation at 730 nm and 570 nm. The voltage response is linear over the range of −100 mV to +100 mV; 570 nm is slightly to the blue of the isosbestic point, accounting for the weak but inverted sensitivity at this wavelength. […] This opposite polarity at the blue and red edges underlies the ability to use electrochromic hemicyanine dyes for dual-wavelength ratio imaging. The precise location of the isosbestic point in the excitation wavelength depends on the emission filter used because the emission spectrum is also voltage dependent for hemicyanine dyes.
The magnitude and wavelengths of the optimal voltage sensitivities of all the VSDs on the voltage-clamped hemispherical bilayer are included in the third column of Table 1.

[2] = Absorption and emission spectra, fluorescence quantum efficiency in EtOH, PBS and lipid vesicles (MLV); assay type: physicochemical
Protocol: FIGS. 2A-2C are plots showing absorption and emission spectra of 2a, in comparison with ElectroFluor630, in various solvent environments: MLV, EtOH, and PBS. Multilamellar lipid vesicle suspension (MLV) was prepared by sonicating soybean phosphatidylcholine in PBS buffer (2 mg/mL) to mimic the cell membrane environment. The emission spectra in ethanol and PBS buffer were scaled 10 and 20 times respectively relative to the emission spectra in MLV. Excitation wavelength is 580 nm for emission spectra.
All chemicals were purchased from commercial sources (Sigma Aldrich, Acros, TCI America, Combi-Blocks, and others) and used without further purification. Column chromatography was generally performed on COMBIFLASH NextGen 300 using normal phase silica columns except that for some final dye products amine silica columns were used. Thin layer chromatography (TLC) was carried out on EM 60 F-254 plastic TLC plates. NMR spectra were recorded on Varian 400 MHz, 500 MHz, and 800 MHz instruments at the UConn Heath Structural Biology Facility. All spectra are referenced internally to TMS or residual solvent signals. Electrospray ionization (ESI) high-resolution mass spectra (HRMS) were obtained on a QStar Elite (AB Sciex) at the Department of Chemistry, University of Connecticut. UV/Vis absorption spectra were recorded on a UV-Visible spectrophotometer (Shimadzu, UV-1601PC) and fluorescence emission spectra on a Horiba Fluorolog spectrofluorometer (Horiba, Inc., Edison, NJ). Fluorescence quantum yield for dyes was determined by a relative method using Rhodamine 6G (excited at 480 nm, FQY=0.95 in EtOH) or cresyl violet (excited at 580 nm, FQY=0.54 in MeOH) as the references.
Absorbance and the fluorescence properties of the new VSDs were determined. The absorption and emission spectra for 2a, together with ElectroFluor630, in aqueous buffer (PBS), ethanol, and when intercalated in the membrane of lipid vesicles are shown in FIGS. 2A-C. […] This is particularly advantageous for fluorescence imaging because background fluorescence from unbound dye is negligible. Another characteristic of the hemicyanine VSDs that is preserved by 2a in FIGS. 2A-C is the large Stokes shift between the excitation and emission maxima. 125 nm for the membrane-bound dye. This is also a benefit for fluorescence detection and imaging, as the fluorescence can be readily filtered from scattered exciting light. The broad wavelength window afforded by the spectra is also an important benefit for the design of experiments with multiple fluorescent sensors. For comparative purposes, certain VSDs are shown below.
As expected, the spectra are largely insensitive to alkyl substitution. Table 1 also includes data for ElectroFluor630 (aka Di-4-ANEQ (F) PTEA) for comparison. The absorption maxima of 2a in ethanol (EtOH), aqueous buffer (PBS) and when bound to lipid membranes (multilamellar vesicles, MLV) are red shifted by 77 nm, 63 nm and 63 nm, respectively, relative to ElectroFluor630, which is isostructural to 2a. […] The absorption and emission spectra of 2a, 2b, and 2c are all shifted to the red by 50-65 nm relative to ElectroFluor630.

- absorption maximum ([2]; in EtOH): 696 nm
- absorption maximum ([2]; in MLV (multilamellar lipid vesicles)): 599 nm
- absorption maximum ([2]; in PBS): 597 nm
- Fluorescence quantum efficiency (FQE) ([2]; in lipid vesicle suspensions): 0.10
- emission maximum ([2]; membrane-bound (MLV)): 734 nm
SMILES: CCCCCCN(CCCCCC)c1ccc2c(c1)OCC(/C=C/c1c(F)c[n+](CCC[N+](CC)(CC)CC)c3ccccc13)=C2.[Br-].[Br-] [2c]
- Ex (excitation wavelength of optimal voltage sensitivity) [1]: 730 nm
- Voltage Sensitivity ΔF/F per 100 mV ([1]; magnitude at optimal Ex/Em): 12%
